# Experimental data as given in article PMC11224465, “Characterization of the somatostatin system in tilapia: implications for growth and reproduction” (Frontiers in Endocrinology, 2024).
# “And” between values parts separate entries of the source, which are not always exact repeats. Identical values can stand only once. “Also recorded” adds a separate entry of the source. Positions of bridges follow the written chain, without caps; N, C: chain ends. Non-standard residues stand in square brackets, D forms with d. Residues, ends and D or L forms follow the SMILES beside them. *: point of attachment. Ahp = NCCCCCCC(=O)O; Bn = c1ccc(C*)cc1
# Columns and labels:
# [1] = molecular target: T1, tilapia SSTR2a (Oreochromis niloticus, UniProt I3KUD5); experiment: Cre-luc reporter assay, agonist/antagonist combination plus forskolin, COS-7 cells with SSTR2a; assay type: cell-based, Nile tilapia (Oreochromis niloticus); settings: mean ± SEM
# Text: (§1) The signaling pathways of SSTRs were studied by inserting the entire coding sequence of the four receptors expressed in the pituitary (SSTR2a, SSTR3a, SSTR5b, and SSTR3b; accession nos. XP_003438730.1, XP_019215873.1, XP_003452896.1, and XP_019213185.1, respectively; Table 1 ) into pcDNA3.1 (Invitrogen) and verified by cloning and sequencing. The sequences were obtained from GenScript Biotech based on sequence information retrieved from GenBank. The procedures for transient transfection of the different cell lines and receptor stimulation have been described previously ([35], [36]). In brief, COS-7 cells were cotransfected with a luciferase reporter plasmid (Cre-luc; 3 µg) and one of the SSTRs (3 µg). As a control treatment, the […] (data not shown). […] Six hours after stimulation, the cells were analyzed using the GloMax multidetection system (Promega).
# (§2) In another set of assays, the SST receptors were exposed to increasing concentrations of cyclosomatostatin, an SSTR antagonist (0–1000 nM; each in triplicate), in combination with octreotide, an SSTR agonist (10 nM), and FSK (20 μM), or increasing concentrations of octreotide (0–1000 nM; each in triplicate) in combination with cyclosomatostatin (10 nM) and FSK (20 μM). […]
# [2] = system: GH plasma levels; experiment: In vivo effect on GH plasma levels (ELISA) after IP injection; set-up: species or system Nile tilapia (Oreochromis niloticus); settings: female tilapia, 100 µg/kg IP, sampled 2, 4, 6, 24 h
# Method: (§3) Adult female tilapia (body weight 89.29 ± 32.93 g) were injected IP with saline, cyclosomatostatin, or octreotide (100 μg/kg; n = 8 fish per group). The fish were bled from the caudal blood vessels into heparinized syringes at 0, 2, 4, 6, and 24 h after injection. Blood was centrifuged at 3,200 rpm for 30 min at 4°C to obtain plasma samples, which were stored at -20°C until assayed. This standard protocol was used previously to test the effect of GnRH and other hypothalamic neuropeptides on circulating levels of LH, FSH, and GH in tilapia ([33], [37], [38]). Three independent experiments were performed for each treatment. Plasma levels of LH, FSH, and GH were measured by specific competitive ELISAs developed for tilapia ([39], [40]) based on recombinant ([…] or rtiGH. The […] produced against […]β ([40]), or rtGH ([39]), and […]βα ([37]) or rtGH ([39]) was used to generate a standard curve. The sensitivity of plasma measurements was 15.84 pg/ml for LH, 0.24 pg/ml for FSH, and 35.0 pg/ml for GH.
# [3] = system: LH plasma levels; experiment: In vivo effect on LH plasma levels (ELISA) after IP injection; set-up: species or system Nile tilapia (Oreochromis niloticus); settings: female tilapia, 100 µg/kg IP, sampled 2, 4, 6, 24 h
# Method: as §3
# [4] = molecular target: T2, tilapia SSTR5b (Oreochromis niloticus, UniProt I3J1C6); experiment: Cre-luc reporter assay, agonist/antagonist combination plus forskolin, COS-7 cells with SSTR5b; assay type: cell-based, Nile tilapia (Oreochromis niloticus); settings: mean ± SEM
# T2 sequence (I3J1C6 1-359): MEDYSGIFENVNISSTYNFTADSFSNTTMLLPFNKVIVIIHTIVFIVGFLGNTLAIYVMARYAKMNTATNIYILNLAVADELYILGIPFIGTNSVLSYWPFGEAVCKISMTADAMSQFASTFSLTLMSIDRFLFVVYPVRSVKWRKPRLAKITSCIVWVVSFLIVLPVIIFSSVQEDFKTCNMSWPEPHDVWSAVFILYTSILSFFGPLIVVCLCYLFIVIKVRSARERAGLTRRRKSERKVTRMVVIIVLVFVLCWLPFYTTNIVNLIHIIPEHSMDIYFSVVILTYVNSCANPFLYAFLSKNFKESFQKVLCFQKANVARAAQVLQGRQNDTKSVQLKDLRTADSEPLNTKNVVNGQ
# Text: as §1, §2
# [5] = system: FSH plasma levels; experiment: In vivo effect on FSH plasma levels (ELISA) after IP injection; set-up: species or system Nile tilapia (Oreochromis niloticus); settings: female tilapia, 100 µg/kg IP, sampled 2, 4, 6, 24 h
# Method: as §3
# [6] = molecular target: T3, tilapia SSTR3a (Oreochromis niloticus, UniProt I3K8H1); experiment: Cre-luc reporter assay, agonist/antagonist combination plus forskolin, COS-7 cells with SSTR3a; assay type: cell-based, Nile tilapia (Oreochromis niloticus); settings: in presence of octreotide 10 nM and FSK 20 μM, mean ± SEM, read-out: EC50 on SST-R3a (Cre-luciferase)
# T3 sequence (I3K8H1 1-482): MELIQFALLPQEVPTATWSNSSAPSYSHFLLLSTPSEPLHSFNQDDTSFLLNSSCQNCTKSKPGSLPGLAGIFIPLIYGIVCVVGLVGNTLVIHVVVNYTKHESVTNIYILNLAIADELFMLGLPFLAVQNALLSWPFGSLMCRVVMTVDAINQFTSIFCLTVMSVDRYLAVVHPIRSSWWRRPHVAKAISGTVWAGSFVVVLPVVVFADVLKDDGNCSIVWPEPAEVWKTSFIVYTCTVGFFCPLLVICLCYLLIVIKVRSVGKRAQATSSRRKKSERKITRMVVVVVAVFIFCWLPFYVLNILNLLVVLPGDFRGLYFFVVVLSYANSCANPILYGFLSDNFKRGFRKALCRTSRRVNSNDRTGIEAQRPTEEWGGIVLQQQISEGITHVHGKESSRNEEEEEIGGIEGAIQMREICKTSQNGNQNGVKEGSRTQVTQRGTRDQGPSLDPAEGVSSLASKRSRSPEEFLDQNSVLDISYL
# Text: as §1, §2
# [7] = molecular target: T4, tilapia SSTR3b (Oreochromis niloticus, UniProt I3L056); experiment: Cre-luc reporter assay, agonist/antagonist combination plus forskolin, COS-7 cells with SSTR3b; assay type: cell-based, Nile tilapia (Oreochromis niloticus)
# Text: as §1
# In another set of assays, the SST receptors were exposed to increasing concentrations of cyclosomatostatin, an SSTR antagonist (0–1000 nM; each in triplicate), in combination with octreotide, an SSTR agonist (10 nM), and FSK (20 μM), or increasing concentrations of octreotide (0–1000 nM; each in triplicate) in combination with cyclosomatostatin (10 nM) and FSK (20 μM). Three individual experiments were conducted using distinct batches of COS-7 cells for each experiment and including three replicates for every concentration.
# [8] = system: human SSTR2; set-up: method as in PMID 8532003; settings: cited from earlier work
# [9] = system: SSTR3a; set-up: method as in PMID 8532003; settings: cited from earlier work
# [10] = molecular target: T1, tilapia SSTR2a; experiment: Cre-luc reporter assay, ligand plus forskolin, COS-7 cells transfected with SSTR2a; assay type: cell-based, Nile tilapia (Oreochromis niloticus); settings: FSK 20 μM, subnanomolar concentrations
# Text: as §1
# [11] = molecular target: T3, tilapia SSTR3a; experiment: Cre-luc reporter assay, ligand plus forskolin, COS-7 cells transfected with SSTR3a; assay type: cell-based, Nile tilapia (Oreochromis niloticus); settings: FSK 20 μM, mean ± SEM, read-out: IC50 on SST-R3a (Cre-luciferase)
# Text: as §1
# [12] = system: aggressive behavior; set-up: method as in PMID 16887916; settings: cichlid fish, 4 mg/kg; cited from earlier work
# [13] = system: SSTR5; set-up: method as in PMID 8532003; settings: human; cited from earlier work
# [14] = molecular target: T4, tilapia SSTR3b; experiment: Cre-luc reporter assay, ligand plus forskolin, COS-7 cells transfected with SSTR3b; assay type: cell-based, Nile tilapia (Oreochromis niloticus); settings: FSK 20 μM alone as backdrop
# Method: In brief, COS-7 cells were cotransfected with a luciferase reporter plasmid (Cre-luc; 3 µg) and one of the SSTRs (3 µg). […] Six hours after stimulation, the cells were analyzed using the GloMax multidetection system (Promega).
# [15] = molecular target: T2, tilapia SSTR5b; experiment: Cre-luc reporter assay, ligand plus forskolin, COS-7 cells transfected with SSTR5b; assay type: cell-based, Nile tilapia (Oreochromis niloticus); settings: FSK 20 μM, mean ± SEM, read-out: IC50 on SST-R5b (Cre-luciferase)
# Text: as §1
# T4 sequence (I3L056 29-511): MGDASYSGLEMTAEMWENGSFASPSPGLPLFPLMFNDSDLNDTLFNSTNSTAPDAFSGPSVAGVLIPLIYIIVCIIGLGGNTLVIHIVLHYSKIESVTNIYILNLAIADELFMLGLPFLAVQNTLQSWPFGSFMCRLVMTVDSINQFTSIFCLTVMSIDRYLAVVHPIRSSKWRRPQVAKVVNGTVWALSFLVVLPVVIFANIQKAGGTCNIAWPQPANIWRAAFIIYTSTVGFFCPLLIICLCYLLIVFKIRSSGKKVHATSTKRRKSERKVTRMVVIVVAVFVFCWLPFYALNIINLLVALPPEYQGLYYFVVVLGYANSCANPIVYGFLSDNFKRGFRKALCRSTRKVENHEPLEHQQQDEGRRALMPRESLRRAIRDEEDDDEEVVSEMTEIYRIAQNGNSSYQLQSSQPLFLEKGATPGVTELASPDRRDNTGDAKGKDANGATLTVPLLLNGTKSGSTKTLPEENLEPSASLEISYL
# T1 sequence (I3KUD5 1-379): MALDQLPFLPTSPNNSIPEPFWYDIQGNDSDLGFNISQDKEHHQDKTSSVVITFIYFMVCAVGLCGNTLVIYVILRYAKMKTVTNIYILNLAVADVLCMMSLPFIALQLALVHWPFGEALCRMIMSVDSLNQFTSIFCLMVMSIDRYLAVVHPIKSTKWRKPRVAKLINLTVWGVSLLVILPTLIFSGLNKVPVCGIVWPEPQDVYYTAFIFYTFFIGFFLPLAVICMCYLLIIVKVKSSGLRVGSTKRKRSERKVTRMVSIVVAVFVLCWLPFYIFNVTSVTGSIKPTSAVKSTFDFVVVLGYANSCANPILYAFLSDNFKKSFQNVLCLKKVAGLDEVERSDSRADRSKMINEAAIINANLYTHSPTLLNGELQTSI
compound,measurement,setting,value
"C[C@@H](OCc1ccccc1)[C@@H]1NC(=O)[C@H](CCCCN)NC(=O)[C@@H](Cc2c[nH]c3ccccc23)NC(=O)[C@H](Cc2ccccc2)NC(=O)CCCCCCNC1=O [Cyclosomatostatin, cyclosomatostatin] (cyclo([Ahp]F[dW]KT(Bn)); ring closure inferred)",EC50,"[1]; in presence of octreotide 10 nM and FSK 20 μM, read-out: EC50 on SST-R2a (Cre-luciferase)",189 ± 4.34 nM
same,GH plasma levels vs control,[2],the same as in the control fish
same,LH plasma levels vs control,[3],increased
same,LH plasma levels vs control,[3]; listed as SSTR antagonist,returned to baseline after 4 h
same,EC50,"[4]; in presence of octreotide 10 nM and FSK 20 μM, read-out: EC50 on SST-R5b (Cre-luciferase)",2.15 ± 0.009 nM
same,FSH plasma levels vs control,[5],increased
same,FSH plasma levels vs control,[5]; listed as SSTR antagonist,remained elevated for 6 h
same,EC50,[6],0.1 ± 0.001 nM
same,EC50,"[7]; COS-7 cells, in presence of octreotide 10 nM and FSK 20 μM, mean ± SEM, read-out: EC50 on SST-R3b (Cre-luciferase)",46.2 ± 3.82 nM
same,Activation of SSTR3b (Cre-luc),[7]; in the presence of both FSK and octreotide,efficient activation
"C[C@@H](O)[C@@H]1NC(=O)[C@H](CCCCN)NC(=O)[C@@H](Cc2c[nH]c3ccccc23)NC(=O)[C@H](Cc2ccccc2)NC(=O)[C@@H](NC(=O)[C@H](N)Cc2ccccc2)CSSC[C@@H](C(=O)N[C@H](CO)[C@@H](C)O)NC1=O [Octreotide, octreotide]",Affinity to human SSTR2,[8],high affinity
same,Affinity to SSTR3a,[9],moderate affinity
same,Effect on tiSSTR2a Cre-luc activity,[10],inhibited
same,IC50,"[1]; in presence of cyclosomatostatin 10 nM and FSK 20 μM, read-out: IC50 on SST-R2a (Cre-luciferase)",0.81 ± 0.01 nM
same,GH plasma levels vs control,[2],significantly decreased
same,LH plasma levels vs control,[3],remained similar to the control; also recorded: no significant effect
same,LH plasma levels vs control,[3]; listed as octreotide,remained unaffected
same,IC50,[11],0.004 nM
same,Aggressive behavior,[12],decrease
same,IC50,"[4]; in presence of cyclosomatostatin 10 nM and FSK 20 μM, read-out: IC50 on SST-R5b (Cre-luciferase)",17.4 ± 3.14 nM
same,FSH plasma levels vs control,[5],reduced
same,FSH plasma levels vs control,[5]; listed as octreotide,decreased
same,Affinity to SSTR5,[13],high affinity
same,IC50,"[7]; COS-7 cells, in presence of cyclosomatostatin 10 nM and FSK 20 μM, mean ± SEM, read-out: IC50 on SST-R3b (Cre-luciferase)",0.35 ± 0.04 nM
same,Effect on SSTR3b Cre-luc activity,[14],no discernible activation
same,IC50,[15],906 nM and 157 nM
CC(C)C[C@@H]1NC(=O)CNC(=O)[C@H](CCCCN)NC(=O)[C@H](Cc2c[nH]c3ccccc23)NC(=O)[C@H](Cc2ccc(O)cc2)NC(=O)[C@H](Cc2ccccc2)NC(=O)[C@H](CC(N)=O)NC(=O)[C@H](CCCCN)NC(=O)[C@@H](NC(=O)CNC(=O)[C@H](C)N)CSSC[C@@H](C(=O)O)NC(=O)[C@H](CO)NC(=O)[C@H]([C@@H](C)O)NC1=O [SST3] (H-AGCKNFYWKGLTSC-OH; disulfide 3-14; N-terminus and C-terminus assumed),Effect on tiSSTR2a Cre-luc activity,[10],inhibited
same,IC50,[11],572.9 ± 0.1 nM
same,IC50,[15],720.2 ± 0.5 nM
C[C@H](N)C(=O)N1CCC[C@H]1C(=O)N[C@H]1CSSC[C@@H](C(=O)O)NC(=O)[C@H](CO)NC(=O)[C@H]([C@@H](C)O)NC(=O)[C@H](Cc2ccccc2)NC(=O)[C@H]([C@@H](C)O)NC(=O)[C@H](CCCCN)NC(=O)[C@H](Cc2c[nH]c3ccccc23)NC(=O)[C@H](Cc2ccccc2)NC(=O)[C@H](Cc2ccccc2)NC(=O)[C@H](CC(N)=O)NC(=O)[C@H](CCCCN)NC1=O [SST6] (H-APCKNFFWKTFTSC-OH; disulfide 3-14; N-terminus and C-terminus assumed),Effect on tiSSTR2a Cre-luc activity,[10],inhibited
same,IC50,[11],3.75 ± 0.04 nM
same,IC50,[15],906.1 ± 0.5 nM
